Measured values from US20210045385A1, “PYRIDAZINONE-SUBSTITUTED KETOXIMES AS HERBICIDES” (FMC Corporation, priority 2018, published 2021).

Key:
Type in all cases: in vivo
[1] = test system: corn (Zea mays); experiment: Test C postemergence, visual plant response rating
In short: (§1)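 Seeds sown in a loam–sand blend got a directed preemergence soil spray; postemergence plants (2–10 cm, one- to two-leaf stage) were sprayed with compound in a non-phytotoxic solvent plus surfactant. Injury was scored visually against untreated controls after about 10 d in a greenhouse on a 0–100 scale (100 = complete control).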

[2] = test system: ragweed (common ragweed, Ambrosia artemisiifolia); experiment: Test C postemergence, visual plant response rating
In short: as §1

[3] = test system: galium (catchweed bedstraw, Galium aparine); experiment: Test C postemergence, visual plant response rating
In short: as §1

[4] = test system: Italian ryegrass (Lolium mutiflorum); experiment: Test C postemergence, visual plant response rating
In short: as §1

[5] = test system: kochia (Bassia scoparia); experiment: Test C postemergence, visual plant response rating
In short: as §1

[6] = test system: blackgrass (Alopecurus myosuroides); experiment: Test C postemergence, visual plant response rating
In short: as §1

[7] = test system: foxtail, giant (giant foxtail, Setaria faberi); experiment: Test C postemergence, visual plant response rating
In short: as §1

[8] = test system: barnyardgrass (Echinochloa crus-galli); experiment: Test C postemergence, visual plant response rating
In short: as §1

[9] = test system: wheat (Triticum aestivum); experiment: Test C postemergence, visual plant response rating
In short: as §1

[10] = test system: pigweed (Amaranthus retroflexus); experiment: Test C postemergence, visual plant response rating
In short: as §1

[11] = test system: duck salad (Heteranthera limosa); experiment: Test D flooded paddy test, visual plant response rating; conditions: 250 g ai/ha, scale 0 to 100 (0 no effect, 100 complete control), 13 to 15 d
In short: (§2)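 Greenhouse paddy assay scored on a 0–100 visual scale after 13 to 15 d, where 100 means complete control and a dash marks no result; dosing was into 3 cm floodwater over 2-leaf plants.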

[12] = test system: sedge umbrella (small-flower umbrella sedge, Cyperus difformis); experiment: as above; conditions: 250 g ai/ha, scale 0 to 100 (0 no effect, 100 complete control), 13 to 15 d
In short: as §2

[13] = test system: rice (Oryza sativa); experiment: as above; conditions: 250 g ai/ha, scale 0 to 100 (0 no effect, 100 complete control), 13 to 15 d
In short: as §2

[14] = test system: barnyardgrass (Echinochloa crus-galli); experiment: as above; conditions: 250 g ai/ha, scale 0 to 100 (0 no effect, 100 complete control), 13 to 15 d
In short: as §2

[15] = test system: ragweed (common ragweed, Ambrosia artemisiifolia); experiment: Test C preemergence, visual plant response rating; conditions: Test C, 0 is no effect, 100 is complete control
In short: as §1

[16] = test system: Italian ryegrass (Lolium mutiflorum); experiment: Test C preemergence, visual plant response rating; conditions: Test C, 0 is no effect, 100 is complete control
In short: as §1

[17] = test system: kochia (Bassia scoparia); experiment: Test C preemergence, visual plant response rating; conditions: Test C, 0 is no effect, 100 is complete control
In short: as §1

[18] = test system: foxtail, giant (giant foxtail, Setaria faberi); experiment: Test C preemergence, visual plant response rating; conditions: Test C, 0 is no effect, 100 is complete control
In short: as §1

[19] = test system: barnyardgrass (Echinochloa crus-galli); experiment: Test C preemergence, visual plant response rating; conditions: Test C, 0 is no effect, 100 is complete control
In short: as §1

[20] = test system: pigweed (Amaranthus retroflexus); experiment: Test C preemergence, visual plant response rating; conditions: Test C, 0 is no effect, 100 is complete control
In short: as §1

[21] = Test C, postemergence, 125 g ai/ha

Row | Compound | Corn plant response rating (0 to 100 scale) ([1]; Postemergence, 31 g ai/ha) | Corn plant response rating (0 to 100 scale) [1, 21] | Ragweed plant response rating (0 to 100 scale) ([2]; Postemergence, 31 g ai/ha) | Ragweed plant response rating (0 to 100 scale) [2, 21] | Galium plant response rating (0 to 100 scale) ([3]; Postemergence, 31 g ai/ha) | Galium plant response rating (0 to 100 scale) [3, 21] | Ryegrass, Italian plant response rating (0 to 100 scale) ([4]; Postemergence, 31 g ai/ha) | Ryegrass, Italian plant response rating (0 to 100 scale) [4, 21] | Kochia plant response rating (0 to 100 scale) ([5]; Postemergence, 31 g ai/ha) | Kochia plant response rating (0 to 100 scale) [5, 21] | Blackgrass plant response rating (0 to 100 scale) ([6]; Postemergence, 31 g ai/ha) | Blackgrass plant response rating (0 to 100 scale) [6, 21] | Foxtail, Giant plant response rating (0 to 100 scale) ([7]; Postemergence, 31 g ai/ha) | Foxtail, Giant plant response rating (0 to 100 scale) [7, 21] | Barnyardgrass plant response rating (0 to 100 scale) ([8]; Postemergence, 31 g ai/ha) | Barnyardgrass plant response rating (0 to 100 scale) [8, 21] | Wheat plant response rating (0 to 100 scale) ([9]; Postemergence, 31 g ai/ha) | Wheat plant response rating (0 to 100 scale) [9, 21] | Pigweed plant response rating (0 to 100 scale) ([10]; Postemergence, 31 g ai/ha) | Pigweed plant response rating (0 to 100 scale) [10, 21] | further results
1 | Cc1nn(C)c(=O)c(C(=NOC(C)C)c2cc(Cl)cc(Cl)c2Cl)c1O [Compound 295] | 0 | 30 | 100 | 100 | 100 | 100 | 100 | 100 | 0 | 50 | 0 | 0 | 70 | 90 | 50 | 70 | 30 | 100 | 60 | 90 | Plant response rating, Ducksalad (Flood) [11]: 65; Plant response rating, Sedge, Umbrella (Flood) [12]: 70; Plant response rating, Rice (Flood) [13]: 60; Plant response rating, Barnyardgrass (Flood) [14]: 60; Ragweed plant response rating (0 to 100 scale) ([15]; 31 g ai/ha): 90; Ragweed plant response rating (0 to 100 scale) ([15]; 125 g ai/ha): 100; Ryegrass, Italian plant response rating (0 to 100 scale) ([16]; 31 g ai/ha): 80; Ryegrass, Italian plant response rating (0 to 100 scale) ([16]; 125 g ai/ha): 100; Kochia plant response rating (0 to 100 scale) ([17]; 31 g ai/ha): 0; Kochia plant response rating (0 to 100 scale) ([17]; 125 g ai/ha): 70; Foxtail, Giant plant response rating (0 to 100 scale) ([18]; 31 g ai/ha): 100; Foxtail, Giant plant response rating (0 to 100 scale) ([18]; 125 g ai/ha): 100; Barnyardgrass plant response rating (0 to 100 scale) ([19]; 31 g ai/ha): 0; Barnyardgrass plant response rating (0 to 100 scale) ([19]; 125 g ai/ha): 0; Pigweed plant response rating (0 to 100 scale) ([20]; 31 g ai/ha): 80; Pigweed plant response rating (0 to 100 scale) ([20]; 125 g ai/ha): 100
2 | C#CCON=C(c1cc(Cl)cc(Cl)c1Cl)c1c(O)c(C)nn(C)c1=O [Compound 296] | 0 | 20 | 100 | 100 | 100 | 100 | 80 | 100 | 30 | 50 | 0 | 70 | 30 | 90 | 20 | 70 | 70 | 100 | 80 | 90 | Plant response rating, Ducksalad (Flood) [11]: 0; Plant response rating, Sedge, Umbrella (Flood) [12]: 0; Plant response rating, Rice (Flood) [13]: 0; Plant response rating, Barnyardgrass (Flood) [14]: 0; Ragweed plant response rating (0 to 100 scale) ([15]; 31 g ai/ha): 30; Ragweed plant response rating (0 to 100 scale) ([15]; 125 g ai/ha): 100; Ryegrass, Italian plant response rating (0 to 100 scale) ([16]; 31 g ai/ha): 90; Ryegrass, Italian plant response rating (0 to 100 scale) ([16]; 125 g ai/ha): 100; Kochia plant response rating (0 to 100 scale) ([17]; 31 g ai/ha): 0; Kochia plant response rating (0 to 100 scale) ([17]; 125 g ai/ha): 20; Foxtail, Giant plant response rating (0 to 100 scale) ([18]; 31 g ai/ha): 80; Foxtail, Giant plant response rating (0 to 100 scale) ([18]; 125 g ai/ha): 100; Barnyardgrass plant response rating (0 to 100 scale) ([19]; 31 g ai/ha): 60; Barnyardgrass plant response rating (0 to 100 scale) ([19]; 125 g ai/ha): 100; Pigweed plant response rating (0 to 100 scale) ([20]; 31 g ai/ha): 40; Pigweed plant response rating (0 to 100 scale) ([20]; 125 g ai/ha): 100
3 | CO/N=C(/c1c(O)c(C)nn(C)c1=O)c1cccc2cc(SC)ccc12 [Compound 297] | 0 | 0 | 0 | 0 | 0 | 0 | 0 | 0 | 0 | 0 | 0 | 0 | 0 | 0 | 0 | 0 | 0 | 0 | 0 | 0 | Plant response rating, Ducksalad (Flood) [11]: 0; Plant response rating, Sedge, Umbrella (Flood) [12]: 0; Plant response rating, Rice (Flood) [13]: 0; Plant response rating, Barnyardgrass (Flood) [14]: 0; Ragweed plant response rating (0 to 100 scale) ([15]; 31 g ai/ha): 0; Ragweed plant response rating (0 to 100 scale) ([15]; 125 g ai/ha): 0; Ryegrass, Italian plant response rating (0 to 100 scale) ([16]; 31 g ai/ha): 0; Ryegrass, Italian plant response rating (0 to 100 scale) ([16]; 125 g ai/ha): 0; Kochia plant response rating (0 to 100 scale) ([17]; 31 g ai/ha): 0; Kochia plant response rating (0 to 100 scale) ([17]; 125 g ai/ha): 0; Foxtail, Giant plant response rating (0 to 100 scale) ([18]; 31 g ai/ha): 0; Foxtail, Giant plant response rating (0 to 100 scale) ([18]; 125 g ai/ha): 0; Barnyardgrass plant response rating (0 to 100 scale) ([19]; 31 g ai/ha): 0; Barnyardgrass plant response rating (0 to 100 scale) ([19]; 125 g ai/ha): 0; Pigweed plant response rating (0 to 100 scale) ([20]; 31 g ai/ha): 0; Pigweed plant response rating (0 to 100 scale) ([20]; 125 g ai/ha): 0
4 | CO/N=C(/c1c(O)c(C)nn(C)c1=O)c1cc(SC)cc2ccccc12 [Compound 298] | 0 | 0 | 0 | 10 | 0 | 30 | 0 | 0 | 0 | 10 | 0 | 20 | 0 | 0 | 0 | 0 | 0 | 0 | 0 | 40 | Plant response rating, Ducksalad (Flood) [11]: 0; Plant response rating, Sedge, Umbrella (Flood) [12]: 0; Plant response rating, Rice (Flood) [13]: 0; Plant response rating, Barnyardgrass (Flood) [14]: 0; Ragweed plant response rating (0 to 100 scale) ([15]; 31 g ai/ha): 0; Ragweed plant response rating (0 to 100 scale) ([15]; 125 g ai/ha): 0; Ryegrass, Italian plant response rating (0 to 100 scale) ([16]; 31 g ai/ha): 0; Ryegrass, Italian plant response rating (0 to 100 scale) ([16]; 125 g ai/ha): 0; Kochia plant response rating (0 to 100 scale) ([17]; 31 g ai/ha): 0; Kochia plant response rating (0 to 100 scale) ([17]; 125 g ai/ha): 0; Foxtail, Giant plant response rating (0 to 100 scale) ([18]; 31 g ai/ha): 0; Foxtail, Giant plant response rating (0 to 100 scale) ([18]; 125 g ai/ha): 0; Barnyardgrass plant response rating (0 to 100 scale) ([19]; 31 g ai/ha): 0; Barnyardgrass plant response rating (0 to 100 scale) ([19]; 125 g ai/ha): 0; Pigweed plant response rating (0 to 100 scale) ([20]; 31 g ai/ha): 0; Pigweed plant response rating (0 to 100 scale) ([20]; 125 g ai/ha): 10
